In patent US20150366884A1, “COMPOSITIONS AND METHODS FOR CANCER THERAPY” (UNIVERSITY OF IOWA RESEARCH FOUNDATION, priority 2013, published 2015):
Read-outs that look alike come from different tables or passages of the source.

Tests used:
[1] = test system: A375 human melanoma cells; experiment: MTT viability analysis, TPP chain length and treatment time, A375 cells; conditions: for cytotoxicity at 0.5 µM: Homo sapiens, read-out: decrease in A375 cell viability
Description: (§1) A375 human melanoma (catalog no. CRL1619™) cells were purchased from ATCC®. All cells were cultured in 150 cm^2 culture flasks at 37° C. in a humidified 5% CO2 incubator and detached with 0.25% trypsin-EDTA (GIBCO®, catalog no. 25200). A375 cells were cultured in high glucose DMEM medium (GIBCO®, catalog no. 11965) supplemented with 1% PenStrep (GIBCO®, catalog no. 15140) and 10% FBS (GIBCO®, catalog no. 26140). MeWo cells were cultured in 1:1 DMEM:F12 (VENDOR INFO) medium supplemented with 1% PenStrep and 10% FBS. Melanocytes were cultured in Ham's F10 medium (GIBCO®, catalog no 11550) supplemented with 7% horse serum (Hyclone®, catalog no. SH30074.03) and 50 ng/mL 12-myristate 13-acetate (TPA) (Sigma®, catalog no. P-8139). Experiments were performed with cells at or below passage twenty.
(§2) MTT viability analysis of melanoma cells versus non-malignant melanocyte cells looking at the effect of variation in TPP molecular chain length and treatment time. A375 human melanoma cells in (A), MeWo human melanoma cells in (B), and non-malignant melanocyte cells in (C) were treated with TPP derivatives at a 0.5 μM concentration for 24 h, 48 h, and 72 h.

[2] = test system: non-malignant melanocyte cells; experiment: MTT viability analysis, TPP chain length and treatment time, melanocytes; conditions: 0.5 μM
Description: as §1, §2

[3] = test system: MeWo human melanoma cells; experiment: MTT viability analysis, TPP chain length and treatment time, MeWo cells; conditions: for cytotoxicity at 0.5 µM: Homo sapiens, MeWo, read-out: decrease in MeWo cell viability
Description: as §1, §2

melanoma tumor = experiment: Treatment of melanoma tumor bearing animals; assay type: in vivo

Question: Which results are given for `CCCCCCCCCC[P+](c1ccccc1)(c1ccccc1)c1ccccc1` [decyl-TPP, decyltriphenylphosphonium]?
Answer: decrease in A375 cell viability ([1]; 0.5 μM, 24 h): no significant decrease; cytotoxicity at 0.5 µM ([1]; A-375, 48 h): > 30%; cytotoxicity at 0.5 µM ([1]; A-375, 72 h): > 30%; decrease in non-malignant melanocyte cell viability ([2]; 24 h): No significant decrease; decrease in non-malignant melanocyte cell viability ([2]; 48 h): No significant decrease; decrease in melanocyte viability ([2]; 72 h): not observed; decrease in MeWo cell viability ([3]; 0.5 μM, 24 h): no significant decrease; cytotoxicity at 0.5 µM ([3]; 48 h): > 30%; cytotoxicity at 0.5 µM ([3]; 72 h): > 30%; tolerability (melanoma tumor): well-tolerated
